Where two headings read alike, the source gives them in different places.
Columns and labels:
MCF/MX cells = assay: Resistance of MCF/MX cells to camptothecins; format: cell-based
S1 cells [1] = tested on: S1 cells
Procedure: (§7) Cell-associated radioactivity was measured at the indicated times. Values are mean percentage of drug remaining (triplicate determinations) ± standard deviation.
(§8) After 1 hour, cells were prepared for analysis by scintillation counting. Values shown are mean percentage of drug remaining (triplicate determinations) ± standard deviation.

S1-M1-3.2 cells [2] = tested on: S1-M1-3.2 cells
Procedure: as §7, §8

S1-B1-20 cells [3] = tested on: S1-B1-20 cells
Procedure: as §7, §8

S1-M1-3.2 cells [4] = assay: Cytotoxicity of antitumor agents, 3-day SRB assay, mitoxantrone-selected cells; format: cell-based, human; details: relative to S1; 2-7 independent experiments
Procedure: Cells were cultured for three days in the presence of the antitumor agent (triplicate points per dose). Following a 3-day growth period, cells were fixed in 10% trichloroacetic acid (TCA) for 1 hour, washed extensively with water, and cell-associated protein was stained using 0.1% sulforhodamine B (SRB), a protein binding reagent [Rubinstein et al., Journal of the National Cancer Institute 82, 1113-1118 (1990) and Skehan et al., Journal of the National Cancer Institute 82, 1107-1112 (1990)]. Excess reagent was removed by washing plates in 5% acetic acid, the dye was solubilized in 10 mM Tris base, and absorbance determined in a UV Max spectrophotometer (Molecular Devices, Menlo Park, Calif.) at 540 nm. Cell survival was estimated relative to control wells (no drugs). EC50 values (μM) were estimated from cytotoxicity curves. For S1, the values shown [mean ±SE (number of independent observations)] are taken from Zhang et al., “P-Glycoprotein Mediates Profound Resistance to Bisantrene,” Oncol. Res., 6:291-301, 1994. Values for S1-M1-3.2 are compiled from 2-7 independent experiments.

MCF-7 cells = format: cell-based, human; details: 1 μM daunorubicin, 1 hour retention phase
Procedure: (§1) All incubations were carried out in the absence or presence of FTC (1 or 5 μM).

MCF-7/BCRP cells [5] = format: cell-based, human
Procedure: as §1

S1 cells [6] = assay: Drug accumulation analysis with [14C] drug; format: cell-based, human; details: [14C] drug, 90 minutes at 37° C.
Procedure: (§2) To determine the mechanism of resistance, drug resistant and sensitive cells were incubated with radioactive analogues of antitumor agents and cell-associated radioactivity was measured by scintillation counting. Alternatively, surrogates of chemotherapeutic drugs may be used. The surrogate has no antitumor activity itself but interacts with the cancer cell proteins such as P-gp or MRP in a similar manner as an anticancer drug. The surrogate chemotherapeutic drug would have a property such as fluorescence which is useful for determining the drug resistance mechanisms such as efflux.
(§3) Cells were plated in 60 mm dishes (1×10^6 cells per dish) or in 24 well clusters (2 ×10^5 cells per well) and allowed to grow for 1-2 days. […] Drugs used were [^14C]-mitoxantrone (Amersham, 1 or 5 μM; specific activity 66 mCi/mmol) or [^14C]-doxorubicin (Amersham, 0.5 or 3 μM; specific activity 50-62 mCi/mmol ). […] Unbound drug was removed by washing twice in ice-cold phosphate buffered saline (PBS), cells were solubilized in 2 N NaOH at 37° C. for 1-2 hours, and analyzed by scintillation counting. Results were normalized to cell protein content measured by a Lowry assay.
(§4) The cells were then washed, solubilized, and counted in a scintillation counter. Values are mean disintegration per minute per μg protein of triplicate determinations ± standard deviation.

S1-B1-20 cells [7] = assay: Drug accumulation analysis with [14C] drug; format: cell-based, human; details: [14C] drug, 90 minutes at 37° C.
Procedure: as §2, §3, §4

S1-M1-3.2 cells [8] = assay: Drug accumulation analysis with [14C] drug; format: cell-based, human; details: for Drug Accumulation, no FTC: S1-M1-3.2 cells, [14C] drug, 90 minutes at 37° C.; for drug accumulated compared with the parental cells: S1-M1-3.2 versus S1, no FTC
Procedure: as §2, §3, §4

S1-M1-3.2 cells [9] = assay: Dose modifying factor of FTC (SRB, EC50 ratio); format: cell-based, human; details: S1-M1 versus S1, no reversal agent
Procedure: (§5) Cell survival was estimated after 3 days using the SRB assay. Cell survival was determined by the SRB assay and EC50 values were determined from toxicity curves. The dose modifying factor (DMF) is the ratio of EC50 values obtained in the absence and presence of reversal agent. Maximum DMF values (shown in parentheses) is the ratio of EC50 values of resistant and sensitive cells in the absence of the reversal agent. This value is obtained when resistance is reversed completely, and is the equivalent of the relative resistance.

MCF 7/mtxR cells = format: cell-based, human
Procedure: as §5
(§6) In order to determine the utility of FTC as a reversal agent in other multidrug resistant cell lines, FTC was tested in two breast cancer cell lines which show a multidrug resistant phenotype with no overexpression of P-gp or MRP.

HL-60/AR cells = format: cell-based
Procedure: as §5

MCF-7/BCRP cells [10] = assay: Dose modifying factor of FTC in BCRP-transfected cells; format: cell-based, human; details: MCF-7/BCRP versus MCF-7, no reversal agent
Procedure: Cell survival was estimated after 3 days using the SRB assay, and EC50 values were determined from cytotoxicity curves.

MCF 7/AdVp cells = format: cell-based, human
Procedure: as §5, §6

[11] = 1 hour efflux with energy depletor, growth medium = 100

CC[C@@]1(O)C(=O)OCc2c1cc1n(c2=O)Cc2cc3c(N)cccc3nc2-1 [9-amino camptothecin]
resistance of MCF/MX cells (MCF/MX cells): 120 fold

[N-]=[N+]=[N-].[Na+] [PBS + sodium azide, sodium azide]
% mitoxantrone remaining in cell line (S1 cells [1]; [11]): 137 ± 14% | % mitoxantrone remaining in cell line (S1-M1-3.2 cells [2]; [11]): 285 ± 43% | % mitoxantrone remaining in cell line (S1-B1-20 cells [3]; [11]): 217 ± 6%

CC[C@@]1(O)C(=O)OCc2c1cc1n(c2=O)Cc2cc3ccccc3nc2-1 [camptothecin]
S1-M1-3.2 (relative resistance) (S1-M1-3.2 cells [4]): 2 | resistance of MCF/MX cells (MCF/MX cells): 3.2 fold

COc1cccc2c1C(=O)c1c(O)c3c(c(O)c1C2=O)C[C@@](O)(C(C)=O)C[C@@H]3O[C@H]1C[C@H](N)[C@H](O)[C@H](C)O1 [daunorubicin, reference compound]
daunorubicin retention, Channel Number (fluorescence units), No FTC (MCF-7 cells): 15.2 ± 0.39 fluorescence units | daunorubicin retention, Channel Number (fluorescence units), No FTC (MCF-7/BCRP cells [5]): 6.8 ± 0.33 fluorescence units

COc1cccc2c1C(=O)c1c(O)c3c(c(O)c1C2=O)C[C@@](O)(C(=O)CO)C[C@@H]3O[C@H]1C[C@H](N)[C@H](O)[C@H](C)O1 [doxorubicin, reference compound]
Drug Accumulation, no FTC (S1 cells [6]): 114 ± 11 DPM/μg protein | Drug Accumulation, no FTC (S1-B1-20 cells [7]): 23 ± 1 DPM/μg protein | Drug Accumulation, no FTC (S1-M1-3.2 cells [8]): 19 ± 3 DPM/μg protein | drug accumulated compared with the parental cells (S1-M1-3.2 cells [8]): 17% | [^14C] doxorubicin retention, No FTC (MCF-7/BCRP cells [5]; MCF-7/BCRP, 1 μM [14C]-doxorubicin, 1 hour retention phase): 5.4 ± 0.48 DPM per microgram protein

O=C1c2c(O)ccc(O)c2C(=O)c2c(NCCNCCO)ccc(NCCNCCO)c21 [mitoxantrone]
S1-M1-3.2 (relative resistance) (S1-M1-3.2 cells [4]): 1435 | Drug Accumulation, no FTC (S1 cells [6]): 2430 ± 252 DPM/μg protein | Drug Accumulation, no FTC (S1-B1-20 cells [7]): 1086 ± 100 DPM/μg protein | Drug Accumulation, no FTC (S1-M1-3.2 cells [8]): 996 ± 57 DPM/μg protein | drug accumulated compared with the parental cells (S1-M1-3.2 cells [8]): 41% | Maximum DMF (in parentheses; relative resistance to the antitumor agent) (S1-M1-3.2 cells [9]): 1435 | Maximum DMF (in parentheses; relative resistance to the antitumor agent) (MCF 7/mtxR cells): 114 (2090) | Maximum DMF (in parentheses; relative resistance to the antitumor agent) (HL-60/AR cells): 3.3 (53) | Maximum DMF (in parentheses; relative resistance to the antitumor agent) (MCF-7/BCRP cells [10]): 35.1 | % mitoxantrone remaining over time (hours) (S1 cells [1]; 0 h): 100 ± 6% | % mitoxantrone remaining over time (hours) (S1 cells [1]; 0.5 h): 99 ± 17% | % mitoxantrone remaining over time (hours) (S1 cells [1]; 1 h): 101 ± 3% | % mitoxantrone remaining over time (hours) (S1 cells [1]; 2 h): 100 ± 11% | % mitoxantrone remaining over time (hours) (S1 cells [1]; 4 h): 95 ± 13% | % mitoxantrone remaining over time (hours) (S1-M1-3.2 cells [2]; 0 h): 100 ± 2% | % mitoxantrone remaining over time (hours) (S1-M1-3.2 cells [2]; 0.5 h): 51 ± 6% | % mitoxantrone remaining over time (hours) (S1-M1-3.2 cells [2]; 1 h): 44 ± 1% | % mitoxantrone remaining over time (hours) (S1-M1-3.2 cells [2]; 2 h): 45 ± 3% | % mitoxantrone remaining over time (hours) (S1-M1-3.2 cells [2]; 4 h): 31 ± 2% | % mitoxantrone remaining over time (hours) (S1-B1-20 cells [3]; 0 h): 100 ± 5% | % mitoxantrone remaining over time (hours) (S1-B1-20 cells [3]; 0.5 h): 58 ± 4% | % mitoxantrone remaining over time (hours) (S1-B1-20 cells [3]; 1 h): 45 ± 10% | % mitoxantrone remaining over time (hours) (S1-B1-20 cells [3]; 2 h): 41 ± 3% | % mitoxantrone remaining over time (hours) (S1-B1-20 cells [3]; 4 h): 39 ± 3%

CC(=O)O[C@H]1C(=O)[C@@]2(C)[C@H]([C@H](OC(=O)c3ccccc3)[C@]3(O)C[C@H](OC(=O)[C@H](O)[C@@H](NC(=O)c4ccccc4)c4ccccc4)C(C)=C1C3(C)C)[C@]1(OC(C)=O)CO[C@@H]1C[C@@H]2O [paclitaxel, reference compound]
S1-M1-3.2 (relative resistance) (S1-M1-3.2 cells [4]): 6 | Maximum DMF (in parentheses; relative resistance to the antitumor agent) (S1-M1-3.2 cells [9]): 6 | Maximum DMF (in parentheses; relative resistance to the antitumor agent) (MCF 7/AdVp cells): 0.7 (10.7) | Maximum DMF (in parentheses; relative resistance to the antitumor agent) (MCF 7/mtxR cells): 1.1 (2.0) | Maximum DMF (in parentheses; relative resistance to the antitumor agent) (HL-60/AR cells): 2.6 (5.1) | Maximum DMF (in parentheses; relative resistance to the antitumor agent) (MCF-7/BCRP cells [10]): 2.7

CC[C@@]1(O)C(=O)OCc2c1cc1n(c2=O)Cc2cc3c(CN(C)C)c(O)ccc3nc2-1 [topotecan, reference compound]
S1-M1-3.2 (relative resistance) (S1-M1-3.2 cells [4]): 41 | Maximum DMF (in parentheses; relative resistance to the antitumor agent) (S1-M1-3.2 cells [9]): 41 | Maximum DMF (in parentheses; relative resistance to the antitumor agent) (MCF-7/BCRP cells [10]): 3.3

Source: patent publication US20020169111A1, “Reversal of multidrug resistance in human colon carcinoma cells” (American Cyanamid Comany, priority 1998, published 2002)
